From the NIST ThermoML archive (doi:10.1016/j.tca.2014.05.034)

Assay: xn = mol fraction of the nth substance listed
Details: 100 kPa, Liquid; for kinematic viscosity: Capillary tube (Ostwald / Ubbelohde) method; for mass density: Pycnometric method

NCCN [ethane-1,2-diamine] + OCCOCCO
Details | kinematic viscosity, 298.15 K [m2/s] | kinematic viscosity, 303.15 K [m2/s] | kinematic viscosity, 308.15 K [m2/s] | kinematic viscosity, 313.15 K [m2/s] | kinematic viscosity, 318.15 K [m2/s] | mass density, 298.15 K [kg/m3] | mass density, 303.15 K [kg/m3] | mass density, 308.15 K [kg/m3] | mass density, 313.15 K [kg/m3] | mass density, 318.15 K [kg/m3]
x1 = 0.085 | 2.94e-05 | 2.32e-05 | 1.85e-05 | 1.54e-05 | 1.3e-05 | 1104.7 | 1101.3 | 1097.7 | 1094.3 | 1091
x1 = 0.164 | 3.37e-05 | 2.62e-05 | 2.07e-05 | 1.71e-05 | 1.43e-05 | 1096.3 | 1092.8 | 1089.4 | 1085.8 | 1082.5
x1 = 0.2376 | 3.68e-05 | 2.84e-05 | 2.22e-05 | 1.82e-05 | 1.51e-05 | 1087.5 | 1083.9 | 1080.3 | 1076.8 | 1073.4
x1 = 0.3062 | 3.81e-05 | 2.92e-05 | 2.27e-05 | 1.85e-05 | 1.53e-05 | 1078.1 | 1074.5 | 1070.8 | 1067.2 | 1063.6
x1 = 0.3705 | 3.7e-05 | 2.82e-05 | 2.19e-05 | 1.78e-05 | 1.47e-05 | 1068.3 | 1064.5 | 1060.8 | 1057.1 | 1053.4
x1 = 0.4308 | 3.36e-05 | 2.57e-05 | 2e-05 | 1.64e-05 | 1.35e-05 | 1057.7 | 1053.8 | 1050.1 | 1046.4 | 1042.8
x1 = 0.4874 | 2.87e-05 | 2.22e-05 | 1.74e-05 | 1.43e-05 | 1.19e-05 | 1046.5 | 1042.7 | 1039.1 | 1035.3 | 1031.7
x1 = 0.5407 | 2.31e-05 | 1.8e-05 | 1.44e-05 | 1.19e-05 | 1e-05 | 1034.6 | 1030.8 | 1027 | 1023.1 | 1019.5
x1 = 0.5909 | 1.81e-05 | 1.44e-05 | 1.15e-05 | 9.68e-06 | 8.16e-06 | 1022.5 | 1018.7 | 1015 | 1011.1 | 1007.4
x1 = 0.6384 | 1.4e-05 | 1.13e-05 | 9.35e-06 | 7.83e-06 | 6.79e-06 | 1010.7 | 1006.8 | 1003.1 | 999.3 | 995.4
x1 = 0.6834 | 1.06e-05 | 8.7e-06 | 7.27e-06 | 6.21e-06 | 5.45e-06 | 997.9 | 994 | 990 | 986.2 | 982.5
x1 = 0.7259 | 8.32e-06 | 6.95e-06 | 5.89e-06 | 5.07e-06 | 4.5e-06 | 986.3 | 982.6 | 978.9 | 975 | 971.2
x1 = 0.7663 | 6.39e-06 | 5.42e-06 | 4.66e-06 | 4.05e-06 | 3.65e-06 | 973.7 | 970.1 | 966 | 962.4 | 958.5
x1 = 0.8047 | 4.97e-06 | 4.27e-06 | 3.71e-06 | 3.28e-06 | 2.96e-06 | 961.5 | 957.5 | 953.3 | 949.5 | 945.9
x1 = 0.876 | 3.22e-06 | 2.84e-06 | 2.52e-06 | 2.26e-06 | 2.08e-06 | 938.1 | 934.4 | 930.4 | 926.6 | 922.9
x1 = 0.9408 | 2.23e-06 | 1.99e-06 | 1.8e-06 | 1.63e-06 | 1.52e-06 | 916.1 | 912.8 | 908.5 | 904.8 | 901.2
x1 = 1 | 1.56e-06 | 1.39e-06 | 1.27e-06 | 1.17e-06 | 1.08e-06 | 893.3 | 888.8 | 884.9 | 880 | 875.2
